Data from ChEMBL document CHEMBL3044623, “Feeding cessation effects of chlorantraniliprole, a new anthranilic diamide insecticide, in comparison with several insecticides in distinct chemical classes and mode-of-action groups” (2009).

What was measured:
Format in all cases: functional
Plutella xylostella [1] = assay: Antifeedant activity against third-instar larval stage of Plutella xylostella (diamondback moth) infested compound-treated leaf assessed as time required to stop feeding at 3341 mg a.i/L after 48 hr by leaf disk assay (reference value: > 2880 min)
Trichoplusia ni [2] = assay: Antifeedant activity against third-instar larval stage of Trichoplusia ni (cabbage looper) infested compound-treated leaf assessed as reduction in feeding damage at 3341 mg a.i/L after 48 hr by leaf disk assay relative to untreated control; parameters: scale not given: the % may be the effect or the level left
Trichoplusia ni [3] = assay: Antifeedant activity against third-instar larval stage of Trichoplusia ni (cabbage looper) infested compound-treated leaf assessed as time required to stop feeding at 3341 mg a.i/L after 48 hr by leaf disk assay (reference value: > 2880 min)
Plutella xylostella [4] = assay: Antifeedant activity against third-instar larval stage of Plutella xylostella (diamondback moth) infested compound-treated leaf assessed as reduction in feeding damage at 3341 mg a.i/L after 48 hr by leaf disk assay relative to untreated control; parameters: scale not given: the % may be the effect or the level left
Spodoptera exigua [5] = assay: Antifeedant activity against third-instar larval stage of Spodoptera exigua infested compound-treated leaf assessed as reduction in feeding damage at 3341 mg a.i/L after 48 hr by leaf disk assay relative to untreated control; parameters: scale not given: the % may be the effect or the level left
Helicoverpa zea [6] = assay: Antifeedant activity against third-instar larval stage of Helicoverpa zea (corn earworm) infested compound-treated leaf assessed as reduction in feeding damage at 3341 mg a.i/L after 48 hr by leaf disk assay relative to untreated control; parameters: scale not given: the % may be the effect or the level left
Helicoverpa zea [7] = assay: Antifeedant activity against third-instar larval stage of Helicoverpa zea (corn earworm) infested compound-treated leaf assessed as time required to stop feeding at 3341 mg a.i/L after 48 hr by leaf disk assay (reference value: > 2880 min)
Spodoptera exigua [8] = assay: Antifeedant activity against third-instar larval stage of Spodoptera exigua infested compound-treated leaf assessed as time required to stop feeding at 3341 mg a.i/L after 48 hr by leaf disk assay (reference value: > 2880 min)

With `CNC(=O)ON=C(C)SC` [METHOMYL] the Time (Plutella xylostella [1]) was 3.6 min, the Activity (Trichoplusia ni [2]) was 99.9% and the Time (Trichoplusia ni [3]) was 4.2 min. It also gave an Activity (Plutella xylostella [4]) of 98.5%, an Activity (Spodoptera exigua [5]) of 99.8% and an Activity (Helicoverpa zea [6]) of 99.7%. It also gave a Time (Helicoverpa zea [7]) of 3.8 min and a Time (Spodoptera exigua [8]) of 5.9 min.
